Data taken from patent publication US10792377B2, “Compounds and method for imaging cancer” (Vanderbilt University, priority 2017, dated 2020).
pIC50: −log10 of the molar value. Like-named read-outs stand apart in the source and are kept apart here.

How the values were obtained:
ovine COX-1 = target: T1, ovine COX-1 (Ovis aries, UniProt P05979); test: In vitro purified COX-1 inhibition assay (TLC, 14C-arachidonic acid); format: biochemical
T1 sequence (P05979 25-600): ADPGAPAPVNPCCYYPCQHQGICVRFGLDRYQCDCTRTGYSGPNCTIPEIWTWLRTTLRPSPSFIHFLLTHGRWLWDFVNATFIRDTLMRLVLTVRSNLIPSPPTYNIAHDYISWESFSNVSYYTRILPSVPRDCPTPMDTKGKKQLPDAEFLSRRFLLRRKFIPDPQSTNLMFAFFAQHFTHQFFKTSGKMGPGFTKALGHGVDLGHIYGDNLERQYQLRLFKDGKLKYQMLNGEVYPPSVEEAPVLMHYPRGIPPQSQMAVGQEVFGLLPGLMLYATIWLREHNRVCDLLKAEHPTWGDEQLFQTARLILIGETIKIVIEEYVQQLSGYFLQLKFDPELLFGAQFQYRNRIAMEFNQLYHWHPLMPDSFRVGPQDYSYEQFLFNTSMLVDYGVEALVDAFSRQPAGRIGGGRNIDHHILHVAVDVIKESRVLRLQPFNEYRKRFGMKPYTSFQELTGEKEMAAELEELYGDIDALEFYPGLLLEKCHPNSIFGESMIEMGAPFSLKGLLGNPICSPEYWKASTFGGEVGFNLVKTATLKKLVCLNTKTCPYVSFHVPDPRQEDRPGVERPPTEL
Protocol: The in vitro cyclooxygenase (ovine COX-1 or human COX-2) inhibitory activities of these probes were tested by a previously described TLC assay (FIGS. 19-21). Briefly, reaction mixtures of 200 μL consisted of hematin-reconstituted protein in 100 mM Tris-HCl, pH 8.0, 500 μM phenol, and [1-^14C]arachidonic acid (50 μM, about 55-57 mCi/mmol, Perkin Elmer).
Inhibition Assay Using Purified COX-1 and COX-2. Inhibition of purified ovine COX-1 or mouse COX-2 by test compounds was assayed by a previously described method, which quantifies the conversion of [1-^14C]arachidonic acid to [1-^14C]prostaglandin products. Reaction mixtures of 200 ∝L consisted of hematin-reconstituted protein in 100 mM Tris-HCl, pH 8.0, 500 μM phenol, and [1-^14C]arachidonic acid (50 μM, ˜55-57 mCi/mmol, Perkin Elmer). […] Reactions were terminated by solvent extraction in diethyl ether:methanol:1 M citrate buffer, pH 4.0 (30:4:1). The phases were separated by centrifugation at 2000 g for 2 min, and the organic phase was spotted on a thin-layer chromatography plate (EMD Kieselgel 60, VWR). The plate was developed in ethyl acetate:methylene chloride:glacial AcOH (75:25:1) at 4° C. Radiolabeled products were quantified with a radioactivity scanner (Bioscan, Inc., Washington, D.C.).

[1] = Fluorometry: extinction, quantum yield, fluorescence in DMSO/EtOH; format: physicochemical
Protocol: The TEMPO- and PROXYL-fluorocoxib probes are non-fluorescent (Φfl<0.3) in their non-trapped form, whereas fluorocoxib A or B are highly fluorescent (Φfl[…]) (FIG. 13). However, the absorbance and fluorescence of the TEMPO- and PROXYL-fluorocoxib probes increases in a time-dependent fashion when incubated in a DMSO/EtOH solution (FIGS. 14-15). Referring to FIG. 15, it is noted that at about 16 hours, fluorescence (ex 586 nm) read about 120,000 cps at 607 nm. Turning to FIG. 16, as compared to 5-ROX acid, which had extinction of 36/mM/cm at 580 nm and quantum yield of 0.94 at 604 nm, and fluorocoxib A, which had extinction of 45/mM/cm at 579 nm and quantum yield of 0.93 at 602 nm, fluorocoxib Q1 had extinction of less than 0.4/mM/cm at 586 nm and quantum yield of less than 0.36 at 607 nm. Without wishing to be bound by theory, it is believed that the time-dependent increase in fluorescence and measured fluorescence at 607 nm is the result of reduction/oxidation of fluorocoxib Q1 in the DMSO/EtOH solution (FIG. 16).
Fluorometry. Steady state fluorescence excitation and emission spectra were determined for each compound with a Spex 1681 Fluorolog spectrofluorometer, equipped with a 450 W xenon arc lamp. […]

1483 HNSCC cells = test: Fluorescence microscopy of 1483 HNSCC cells; format: cell-based, human; conditions: 1483 cells, 0.5 h preincubation
Protocol: To test the specific activation of probes in cancer cells, compound 1 was incubated at selected time points (0.5, 1.0, 2.0, 3.0 h). After washout, the cells were imaged under fluorescence microscope.
Fluorescence microscopy of 1483 HNSCC cells. Fluorescence imaging of human 1483 HNSCC cells by compound 1 was performed by a previously described method. Briefly, human 1483 HNSCC cells were grown to 60% confluence. The cells were incubated in 2.0 ml Hank's balanced salt solution (HBSS)/Tyrode's with 200 nM compound 1 for 30 min at 37° C. The cells were then washed briefly three times and incubated in HBSS/Tyrode's for 30 min at 37° C. Following the required washout period, the cells were imaged in 2.0 ml fresh HBSS/Tyrode's on a Zeiss Axiovert 25 Microscope with the propidium iodide filter (0.5-1.0 sec exposure, gain of 2).

[2] = system: COX-2 expressing 1483 tumors; test: In vivo imaging of nude mice with 1483 xenografts; conditions: 1 mg/kg intraperitoneal, nude mice 1483 xenografts
Protocol: The specificity of probe 1 was also evaluated by targeting COX-2 in human tumor xenografts. Nude mice bearing 1483 xenograft tumors on the left flank were dosed by intraperitoneal injection with 1 mg/kg fluorocoxib A or compound 1 (FIG. 25). […] However, signal was detected in the COX-2 expressing 1483 tumors of mice dosed with compound 1 starting at 24 h. Maximum fluorescence is detectable in the tumor at 48 h post-injection of probe 1 (FIGS. 27A-C).
Establishment of xenograft tumors in nude mice. Human 1483 HNSCC cells and HCT116 colorectal carcinoma cells were used to grow tumor xenografts in nude mice using a previously described method. Female nude mice, NU-Foxlnu, were purchased at 6-7 weeks of age from Charles River Labs. Human 1483 HNSCC cells were trypsinized and resuspended in cold PBS containing 30% Matrigel such that 1×10^6 cells in 100 μl were injected subcutaneously on the left flank and grew for 2-3 weeks.
In vivo imaging of nude mice with xenografts. Fluorescence imaging of tumors by test compounds was performed by a previously described method. Female nude mice bearing medium-sized 1483 xenograft tumors on the left flank were dosed by intraperitoneal injection with 1 mg/kg compound 1. The animals were lightly anesthetized with 2% isoflurane for fluorescence imaging in the Xenogen IVIS 200 with the DSRed filter at 1.5 cm depth and 1 sec exposure (f2).

Compound | pIC50 (ovine COX-1; high throughput screening of fluorocoxib and chemocoxib libraries, read-out: purified COX-1 IC50) | pIC50 (ovine COX-1; purified ovine COX-1 (22.5 nM), inhibitor 20 min, then 1-14C-AA (50 μM) 37° C. 30 s, duplicates, read-out: oCOX-1 IC50) | extinction ([1]; at 580 nm (5-ROX acid), 579 nm (fluorocoxib A), 586 nm (fluorocoxib Q1)) [mM⁻¹ cm⁻¹] | quantum yield ([1]; at 604 nm (5-ROX acid), 602 nm (fluorocoxib A), 607 nm (fluorocoxib Q1)) | intracellular fluorescence (1483 HNSCC cells) | fluorescence in the tumor ([2]; 3 h post-injection) | pIC50 (ovine COX-1) | time post-injection at which tumor signal starts to be detected [2] [h] | time post-injection of maximum tumor fluorescence [2] [h]
COc1ccc2c(c1)c(CC(=O)NCCCCNC(=O)c1ccc(C3=c4cc5c6c(c4Oc4c3cc3c7c4CCCN7CCC3)CCC[N+]=6CCC5)c(C(=O)[O-])c1)c(C)n2C(=O)c1ccc(Cl)cc1 [Fluorocoxib A, reference compound] | < 4.60 | < 4.60 | 45 | 0.93 | bright fluorescence | fluorescence was observed in the tumor |  |  | 
COc1ccc2c(c1)c(CC(=O)NCCCCNC(=O)c1ccc(C3=c4cc5c6c(c4Oc4c3cc3c7c4CCCN7CCC3)CCC[N+]=6CCC5)c(C(=O)NC3CC(C)(C)N([O])C(C)(C)C3)c1)c(C)n2C(=O)c1ccc(Cl)cc1 [Compound 1] |  |  |  |  |  |  | < 4.60 | 24 | 48
